The source of these data is patent publication US20250352615A1, “COMPOSITIONS AND METHODS FOR THE MODULATION OF PIEZO1 AND TRPV4” (Duke University, priority 2021, published 2025).

Structures are written as SMILES.

For data set [1], the system named is PSCs. Description: PSC viability (Live/Dead Cell Imaging Kit). In kind it is cell-based. Conditions: Yoda1 25 μM for 2 hr. As to the method:
Mouse and human PSCs were isolated using collagenase digestion. Modified Krebs Henseleit Buffer (KHB) solution (100 mL) was prepared as previously described by Romac et al., Nat. Commun. 9(1):1715 (2018). Pancreatic tissue was digested with 2 mg of collagenase NB 8 (SERVA, catalog 17456) dissolved in 10 mL of modified KHB solution containing 1 mg soybean trypsin inhibitor (SBTI 1-S; Millipore Sigma, catalog T9003) and 20 mg BSA (Thermo Fisher Scientific; BP1600-100). Digestion solution (5 mL) was used to inflate the pancreas. Pancreas with 5 mL of digestion solution was incubated in a shaking water bath for 10 minutes at 37° C. The solution was then discarded. The pancreas tissue was cut into small pieces and digested with fresh 5 mL digestion buffer. Tissue was incubated in a shaking water bath for 40 minutes at 37° C. The cells were then separated from tissue by pipetting up-down with a 10 mL pipette and passed sequentially through a 70 μm and a 40 μm cell strainer. The filtrate was centrifuged at 150×g for 3 minutes at room temperature. The cells were washed with 10 mL Leibovitz's media (Thermo Fisher Scientific, catalog 11415-064), passed through a 20 μm filter, and centrifuged at 80×g for 3 minutes at room temperature. […] The cell viability following Yoda1 treatment was analyzed using the Live/Dead cell imaging kit (Thermo Fisher Scientific, catalog R37601). […]

Data set [2] relates to human stellate cells. Kind of data set: Gene expression (RT-PCR) in Yoda1-treated human stellate cells. In kind it is cell-based. The protocol: Mouse and human stellate cells were prepared and maintained in culture as previously described Swain et al., JCI Insight 7: e158288 (2022). Summarized here: Mouse and human PSCs were isolated using collagenase digestion. Modified Krebs Henseleit Buffer (KHB) solution (100 mL) was prepared as described previously in Romac et al., Nat. Commun. 9(1): 1715 (2018). Pancreatic tissue was digested with 2 mg of collagenase NB 8 (SERVA, catalog 17456) dissolved in 10 mL of modified KHB solution containing 1 mg soybean trypsin inhibitor (SBTI 1-S; Millipore Sigma, catalog T9003) and 20 mg BSA (Thermo Fisher Scientific; BP1600-100). Digestion solution (5 mL) was used to inflate the pancreas. Pancreas with 5 mL of digestion solution was incubated in a shaking water bath for 10 minutes at 37° C. The solution was then discarded. The pancreas tissue was cut into small pieces and digested with fresh 5 mL digestion buffer. Tissue was incubated in a shaking water bath for 40 minutes at 37° C. The cells were then separated from tissue by pipetting up-down with a 10 mL pipette and passed sequentially through a 70 μm and a 40 μm cell strainer. The filtrate was centrifuged at 150×g for 3 minutes at room temperature. The cells were washed with 10 mL Leibovitz's media (Thermo Fisher Scientific, catalog 11415-064), passed through a 20 μm filter, and centrifuged at 80 g for 3 minutes at room temperature. The supernate was removed, and isolated stellate cells were plated on a thin-layered Matrigel-coated glass bottom culture plate (MatTek, P35G-0-14-C). Before plating the cells, Matrigel solution (Corning, catalog 354234) at a ratio of 1.5:100 DMEM/F12 (Thermo Fisher Scientific, catalog 11330-032) was poured onto the culture plate and incubated for 2 hours at 37° C. to form a thin layer of Matrigel coating. Matrigel mixture was removed, and the plate was washed with PBS before cells were plated. Cell culture media, DMEM/F12 with 5% FBS was used for mouse stellate cells. Fresh, human pancreatic tissue (provided by Duke University's BioRepository & Precision Pathology Center under IRB approval) was digested with collagenase as described above with modifications. Collagenase (2.5 mg) in 10 mL of modified KHB solution was used for digestion. The digested tissues were filtered through a 100 μm cell strainer. The cells were cultured with DMEM/F12 with 10% FBS in a Matrigel-coated plate. After 24 hours, the cell media was replaced with fresh media to remove unattached and dead cells. After 2 days, cells were immunostained for GFAP and used for experiments. Perinuclear fat droplets were stained with BODIPY 493/503 (4,4-Difluoro-1,3,5,7,8-Pentamethyl-4-Bora-3a,4a-Diaza-s-Indacene; Invitrogen, catalog D3922) to confirm stellate cell quiescence.
Yoda 1 was resuspended in DMSO at 25 mM stock solution. […]

Setting [3] is: Yoda1, 24 hr, human stellate cells, preliminary.

As to `Clc1cccc(Cl)c1CSc1nnc(-c2cnccn2)s1` [Yoda1], the “PSC viability and membrane integrity” value in data set [1] was “did not affect PSC viability and membrane integrity”. The “expression of fibronectin and IL-6” value in data set [2] (Yoda1 25 μM, 24 hr) is “increased expression of fibronectin and IL-6”. For the same compound, in data set [2] (setting [3]), the “ACTA2 mRNA expression” value is recorded as “decreases ACTA2” and the “CD10 mRNA expression” value is “increases CD10 expression”. In addition, the “TRPV4 mRNA levels” value in data set [2] (human PSCs, 24 hr, Yoda1 5 μm and 25 μM) was “upregulates TRPV4 expression in PSCs”.
